Converted amounts (≈) assume the structure as drawn.

This note sets out measurements from DBAASP.

Some test systems named below: Escherichia coli BW25113; Escherichia coli UB1005; Escherichia coli; Bacillus subtilis; Escherichia coli ML-35; Escherichia coli D21; Bacillus megaterium Bm11.
Common to all, as to assay: ≥ marks a high value that may be exact or a test limit, other limits are often not marked, values filed in µg/mL are converted to µM
In test [1] the test system is Salmonella typhimurium KCTC 1926.
The test system of test [2] is Salmonella enterica subsp. enterica serovar Enteritidis ATCC 13076.
In test [3] the test system is Staphylococcus epidermidis KCTC 1917.
The test system of test [4] is Aspergillus fumigatus KCTC 6145.
Test [5] concerns Aspergillus flavus KCTC 6905.
Test [6] relates to Candida albicans ATCC 90028.
The test system of test [7] is Enterococcus faecalis ATCC 29212.
For test [8], the system named is Streptococcus mutans KCTC 3065.
In test [9] the test system is Pseudomonas aeruginosa ATCC 27853.
Test [10] has as its system Trichosporon beigelii KCTC 7707.
Test [11] has as its system Candida parapsilosis ATCC 22019.
In test [12] the test system is Malassezia furfur KCTC 7744.
Test [13] deals with Enterococcus faecium ATCC 19434.
Test [14] relates to Salmonella enterica subsp. enterica serovar Pullorum C79-13.
Test [15] deals with Staphylococcus aureus ATCC 29213.
Test [16] concerns Escherichia coli ATCC 25922.
Test [17] relates to Salmonella enterica subsp. enterica serovar Typhi CMCC 50071.
Test [18] has as its system Listeria monocytogenes CMCC 54004.
For test [19], the system named is Klebsiella pneumoniae ATCC 13883.
Test [20] deals with Streptococcus pyogenes ATCC 19615.
The test system of test [21] is Salmonella enterica subsp. enterica serovar Typhimurium ATCC 14028.
Test [22] concerns Staphylococcus aureus ATCC 25923.
The subject of test [23] is Staphylococcus epidermidis ATCC 51625.
Test [24] concerns Staphylococcus aureus ATCC BAA-44.
Test [25] has as its system Escherichia coli CCARM 1229.
In test [26] the test system is Staphylococcus aureus CCARM 3518.
In test [27] the test system is Pseudomonas aeruginosa 4891.
Test [28] concerns Escherichia coli CCARM 1238.
For test [29], the system named is Bacillus subtilis KCTC 1998.
The test system of test [30] is Pseudomonas aeruginosa 4007.
The subject of test [31] is Listeria monocytogenes KCTC 3710.
For test [32], the system named is Candida albicans KCTC 7270.
In test [33] the test system is Staphylococcus aureus CCARM 3090.
In test [34] the test system is Staphylococcus epidermidis ATCC 12228.
For test [35], the system named is Serratia marcescens ATCC 8100.

With `CC(C)C[C@H](NC(=O)[C@H](CCCCN)NC(=O)[C@H](CC(C)C)NC(=O)[C@H](CC(N)=O)NC(=O)[C@H](CC(C)C)NC(=O)[C@H](CCCCN)NC(=O)[C@H](CS)NC(=O)[C@@H]1CCCN1C(=O)[C@@H](N)Cc1ccc(O)cc1)C(=O)NCC(=O)N[C@@H](CCCCN)C(=O)N[C@H](C(=O)N1CCC[C@H]1C(=O)N[C@@H](Cc1ccccc1)C(=O)N[C@@H](Cc1cnc[nH]1)C(N)=O)C(C)C` [YPCKLNLKLGKVPFH], the MIC in test [1] was found to be 5 µM (≈ 8.78 µg/mL); in test [2], 5 µM (≈ 8.78 µg/mL); in [3], 5 µM (≈ 8.78 µg/mL); against Escherichia coli BW25113 it was 5 µM (≈ 8.78 µg/mL); in [4] it was 10 µM (≈ 17.6 µg/mL); in [5], 10 µM (≈ 17.6 µg/mL). For the same molecule, the minimum inhibitory concentration (MIC) amounted to 10 µM (≈ 17.6 µg/mL) in test [6]; 2.5 µM (≈ 4.39 µg/mL) in [7]; 5 µM (≈ 8.78 µg/mL) in test [8]; 10 µM (≈ 17.6 µg/mL) in [9]; 5 µM (≈ 8.78 µg/mL) in test [10]; 5 µM (≈ 8.78 µg/mL) in test [11]. The MIC in test [12] turned out to be 5 µM (≈ 8.78 µg/mL); in test [13], 2.5 µM (≈ 4.39 µg/mL).
With `CC(C)C[C@H](NC(=O)[C@H](CCC(N)=O)NC(=O)[C@@H]1CCCN1C(=O)[C@@H](NC(=O)[C@H](CCCCN)NC(=O)[C@H](Cc1ccc(O)cc1)NC(=O)[C@H](CCCCN)NC(=O)[C@H](CCCCN)NC(=O)[C@H](CC(C)C)NC(=O)[C@H](CCCN=C(N)N)NC(=O)[C@@H](N)CC(C)C)C(C)C)C(=O)O` [LRLKKYKVPQL], the MIC in test [14] was no less than 256 µM; in test [15], 640 µM (≈ 887 µg/mL); in [16] it was 64 µM (≈ 88.7 µg/mL); against Escherichia coli UB1005, no less than 128 µM; in test [17], no less than 256 µM; in test [18] it was no less than 64 µM.
Regarding `CC(C)C[C@H](NC(=O)[C@H](CO)NC(=O)[C@H](CCCN=C(N)N)NC(=O)[C@H](CCCCN)NC(=O)[C@@H](NC(=O)[C@@H](NC(=O)CNC(=O)[C@H](CCCN=C(N)N)NC(=O)[C@H](Cc1cnc[nH]1)NC(=O)[C@H](Cc1c[nH]c2ccccc12)NC(=O)[C@H](Cc1ccccc1)NC(=O)[C@H](Cc1cnc[nH]1)NC(=O)[C@H](Cc1ccc(O)cc1)NC(=O)[C@@H](N)Cc1ccc(O)cc1)C(C)C)[C@@H](C)O)C(=O)N[C@@H](CO)C(=O)N1CCC[C@H]1C(=O)N[C@@H](Cc1cnc[nH]1)C(=O)N[C@@H](CCCN=C(N)N)C(=O)N1CCC[C@H]1C(=O)N[C@@H](CCCN=C(N)N)C(=O)O` [YYHFWHRGVTKRSLSPHRPR], the minimal inhibitory concentration (MIC) in test [19] is 6 µM (≈ 15.5 µg/mL); in test [20], 15 µM (≈ 38.7 µg/mL); in test [21], 8 µM (≈ 20.6 µg/mL); in [7] it was 6 µM (≈ 15.5 µg/mL); in [22], 6 µM (≈ 15.5 µg/mL); in [9], 8 µM (≈ 20.6 µg/mL). In addition, the MIC is 30 µM (≈ 77.4 µg/mL) in test [23], 6 µM (≈ 15.5 µg/mL) in the test on Escherichia coli, 30 µM (≈ 77.4 µg/mL) in test [24] and 6 µM (≈ 15.5 µg/mL) with Bacillus subtilis.
Consider `CC[C@H](C)[C@H](NC(=O)CNC(=O)[C@H](CCC(N)=O)NC(=O)[C@H](Cc1ccccc1)NC(=O)[C@@H](NC(=O)[C@H](CCCCN)NC(=O)[C@H](CCCCN)NC(=O)[C@H](CC(C)C)NC(=O)[C@H](C)NC(=O)[C@H](CC(N)=O)NC(=O)[C@H](CC(C)C)NC(=O)[C@@H](N)Cc1c[nH]c2ccccc12)C(C)C)C(=O)N[C@@H](Cc1cnc[nH]1)C(=O)N[C@@H](CCC(=O)O)C(=O)N[C@@H](C)C(=O)N[C@H](C(=O)N[C@@H](CCCCN)C(=O)N[C@@H](CC(C)C)C(=O)N[C@H](C(=O)N[C@@H](Cc1c[nH]c2ccccc12)C(=O)N[C@@H](CC(N)=O)C(=O)N[C@@H](Cc1cnc[nH]1)C(=O)N[C@H](C(=O)N[C@@H](CCC(N)=O)C(N)=O)C(C)C)[C@@H](C)CC)[C@@H](C)CC` [WLNALKKVFQGIHEAIKLIWNHVQ], for which the MIC in test [1] was determined as 2 µM (≈ 5.77 µg/mL); in [25], 2 µM (≈ 5.77 µg/mL); in test [16] it was 2 µM (≈ 5.77 µg/mL); in test [26], 4 µM (≈ 11.5 µg/mL); in test [27], 4 µM (≈ 11.5 µg/mL); in [22], 4 µM (≈ 11.5 µg/mL). Moreover, the MIC in [28] was 2 µM (≈ 5.77 µg/mL); in test [29] it was 4 µM (≈ 11.5 µg/mL); in [9], 2 µM (≈ 5.77 µg/mL); in [30], 2 µM (≈ 5.77 µg/mL); in [10], no less than 32 µM; in test [31] it was 8 µM (≈ 23.1 µg/mL). Moreover, the MIC in test [32] is no less than 32 µM; in test [33] it was 4 µM (≈ 11.5 µg/mL).
Regarding `CC(C)C[C@H](NC(=O)[C@H](Cc1ccc(O)cc1)NC(=O)[C@@H]1CCCN1C(=O)[C@@H]1CCCN1C(=O)[C@H](CCCN=C(N)N)NC(=O)[C@@H]1CCCN1C(=O)[C@H](CCCN=C(N)N)NC(=O)[C@H](CCCN=C(N)N)NC(=O)[C@@H](N)CCCN=C(N)N)C(=O)N1CCC[C@H]1C(=O)N1CCC[C@H]1C(=O)N[C@@H](CCCN=C(N)N)C(=O)N[C@@H](CCCN=C(N)N)C(=O)N1CCC[C@H]1C(=O)N1CCC[C@H]1C(=O)O` [RRRPRPPYLPPRRPP], the MIC in test [34] was greater than 64 µM; in test [21], 8 µM (≈ 15.3 µg/mL); against Escherichia coli ML-35, no less than 32 µM; in test [35], no less than 32 µM; against Escherichia coli D21, 16 µM (≈ 30.6 µg/mL); in the test on Bacillus megaterium Bm11 it was no less than 32 µM.

By MIC is commonly meant the lowest concentration found to suppress growth.
